Entries after “also recorded” stand apart in the source; their conditions may differ.
Legend:
stored RBCs [1] = test: Storage lesion parameters of stored RBCs over 42 days (2,3-DPG, potassium, pH, free hemoglobin, microparticles); assay type: cell-based, human, hamster, rat; settings: for 2,3 DPG level during storage / Levels of free hemoglobin (hemolysis) during storage / Potassium levels during storage / pH (acidification) during storage: all species (human, hamster, rat), 42 days storage; for Microparticle formation in stored blood: human, hamster, rat blood
Method: NO releasing nanoparticles were added to the blood at 10 mg per 125 mL of whole blood. Stored blood was treated with the nanoparticles once every 48 hours at the above described dosing over a period of 21 days for the in vivo transfusion studies. The storage lesion studies were extended to a period of 6 weeks.
In this example, the procedure was substantially the same as Example 6.1, except that transfused blood was stored for 42 days, and included human, hamster, and rat blood. FIGS. 5(D)-(F) show potassium levels and hemolysis over a six week period.
Human RBC units were purchased from the San Diego Blood bank. Blood were preserved in blood collection bags and kept at 4° C.
Blood was obtained from donor rats (˜300 g) Animals were anaesthetized (pentobarbital 60 mg/kg ip) and a femoral catheter (PE-50) was implanted and blood was drawn into 10 mL syringes containing 1.5 mL of citrate, phosphate, dextrose adenine solution (CPDA-1). Blood was leukoreduced, by passing through a neonatal high efficiency leukocyte reduction filter Purecell NEO (Pall Company, East Hills, N.Y.). The leukoreduced blood was centrifuged for 10 minutes at 1350 rpm and supernatant was partially removed to achieve approximately 75% Hct. Packed cell were transferred under sterile conditions to a preservative free blood collection tube and kept at 4° C.
Blood was obtained from donor hamsters (˜80 g). Hamsters were anaesthetized (pentobarbital 60 mg/kg ip) and femoral catheter implanted. The blood from three hamsters was drawn into 10 mL syringes containing 1.5 mL CPDA-1, then leukoreduced as described before and centrifuged. Hamster packed cells were preserved in blood collection tube and kept at 4° C.

RBC = test: Mechanical properties (flexibility) of RBCs during storage; assay type: cell-based; settings: at 1 week, 3 weeks, 5 weeks and 6 weeks of storage
Source text: In this example, as shown in FIGS. 16(A)-(D), RBC flexibility is slowed for RBCs treated with NOnps and GSNO.

stored RBCs [2] = test: RBC glycolytic metabolism during storage over 42 days; assay type: cell-based; settings: for ATP produced vs control / Adenine in stored blood vs control / Citrate in stored blood vs control / Glucose in stored blood vs control / Lactate produced vs control / Mannitol in stored blood vs control / Pyruvate produced vs control: over 42 days
Method: In this example, the glyocotic metabolic mechanism was tested in stored blood. […] The main metabolic pathway of RBC is glycolysis and is primarily fueled by glucose. Glucose enters a RBC and is metabolized to produce ATP, and also pyruvate which in turn is converted to lactate. […] This pathway serves primarily to reduce nicotinamide adenine dinucleotide phosphate (NADPH). In conjunction with the glutathione reductase/peroxidase system, NADPH maintains the sulfhydryl groups of globin in their reduced state.
In order to test RBC metabolism, four sets of stored RBCs were tested: RBCs treated with NO releasing nanoparticles (NOnp), RBCs treated with the S-nitrosothiol derivative of glutathione (GSNO), RBCs treated with NONOates (DTPANO), and a control group of RBCs that were not supplemented. GSNO, which due to its long half-life and ability to transnitrosate, has greater antimicrobial activity then NOnp alone against clinical isolates of gram positive and negative multi drug resistant pathogens. Given both the extended bioactive lifetime of GSNO compared to free NO and the potential differences in target tissues/cells and the success achieved with the NO releasing nanoparticle platform, it was undertaken to produce nanoparticles that were similar in character and structure, but with the capability of either releasing GSNO species or transferring NO via S-transnitrosation. FIGS. 8(A)-(D) show the behavior of various elements of the first step of the glycotic pathway over a period of 42 days. […] FIGS. 8(B)-(D) show the amount of adenine, mannitol, and citrate respectively. […] This is important because these components help RBCs resynthesize the energy carrier adenosine triphosphate (ATP). ATP is a key component in extending the shelf life of stored blood. FIGS. 9(A)-(D) depict the key components in the next step of the glycotic pathway, wherein ATP is created and pyruvate is produced and then converted to lactate. The longevity of stored blood increases as more ATP is produced and less pyruvate and lactate is produced. […] Overall, NOnp and GSNO treated RBC are much slower to lose initial metabolic markers of RBC health than both untreated RBCs and those treated with NONOates.

stored blood = test: Buildup of methemoglobin, plasma nitrite and plasma nitrate in stored blood over six weeks; assay type: cell-based; settings: over a period of six weeks
Method: In this example, the buildup of methemoglobin (MetHb), plasma nitrite and plasma nitrate was also measured over a period of six weeks. […] Nitrite levels were measured because higher nitrate levels are associated with positive RBC health and functionality. […] NO supplementation limits the progressive loss of nitrite and nitrate in RBCs, and such loss of nitrite and nitrate has been correlated with an increase in oxidative damage.

Row | SMILES | 2,3 DPG level during storage (stored RBCs [1]) | Levels of free hemoglobin (hemolysis) during storage (stored RBCs [1]) | Potassium levels during storage (stored RBCs [1]) | pH (acidification) during storage (stored RBCs [1]) | Microparticle formation in stored blood (stored RBCs [1]) | RBC flexibility (RBC) | ATP produced vs control (stored RBCs [2]) | Adenine in stored blood vs control (stored RBCs [2]) | Citrate in stored blood vs control (stored RBCs [2]) | Glucose in stored blood vs control (stored RBCs [2]) | Lactate produced vs control (stored RBCs [2]) | Mannitol in stored blood vs control (stored RBCs [2]) | Pyruvate produced vs control (stored RBCs [2]) | Methemoglobin (MetHb) formation (stored blood) | Glucose-6-phosphate dehydrogenase (G6PD) vs control (stored RBCs [2]; during storage) | Glyceraldehyde 3-phosphate dehydrogenase (GAPDH) vs control (stored RBCs [2]; during storage) | Hexokinase (HK) vs control (stored RBCs [2]; during storage) | Phosphofructokinase (PFK) vs control (stored RBCs [2]; during storage) | Pyruvate kinase (PK) vs control (stored RBCs [2]; during storage)
1 | NCCCN(CCCN)/[N+]([O-])=N/O [DPTANO] | prevented 2,3 DPG rapid decrease | either did not significantly differentiate from the control, or performed worse | either did not significantly differentiate from the control, or performed worse | either did not significantly differentiate from the control, or performed worse | faired similarly or worse than the control | did not vary substantially from that of untreated blood | only produces slightly less than the control | retained higher amounts of each component than the control | retained higher amounts of each component than the control | maintaining slightly higher amounts of glucose | the control produces much more pyruvate and lactate | retained higher amounts of each component than the control | the control produces much more pyruvate and lactate | more met Hb formation; also recorded: increased the formation of met-hemoglobin |  |  |  |  | 
2 | N[C@@H](CCC(=O)N[C@@H](CSN=O)C(=O)NCC(=O)O)C(=O)O [GSNO, S-nitrosothiol derivative of glutathione] | prevented 2,3 DPG rapid decrease | did not increase the levels of free hemoglobin | slowed down potassium levels | prevented rapid acidification | reduced microparticle formation | remained more flexible than untreated and DPTANO treated blood | produce more ATP than the control | retained higher amounts of each component than the control | retained higher amounts of each component than the control | maintaining slightly higher amounts of glucose | the control produces much more pyruvate and lactate | retained higher amounts of each component than the control | the control produces much more pyruvate and lactate | did not generate significantly more MetHb than the control | maintained or even enhanced | maintained or even enhanced | maintained or even enhanced | maintained or even enhanced | maintained or even enhanced

From patent US20170105407A1, “COMPOSITIONS AND METHODS FOR ENHANCING RED BLOOD CELL STORAGE TIME AND SURVIVABILITY USING NITRIC OXIDE RELEASING HYBRID HYDROGEL NANOPARTICLES” (ALBERT EINSTEIN COLLEGE OF MEDICINE, INC., priority 2014, published 2017)
